Molecules are shown by their SMILES.

The test system of assay [1] is A/Sakai/23/2013 (wild-type). In words: microbe, parasite or virus in culture. As to conditions: Influenza A virus.
Assay [2] relates to A/Yokohama/40/2016 (wild-type). In words: microbe, parasite or virus in culture. As to conditions: Influenza A virus.
For assay [3], the system named is A/Yokohama/59/2016 (wild-type). Kind of assay: microbe, parasite or virus in culture. As to conditions: Influenza A virus.
For assay [4], the system named is A/Sakai/23/2013 (wild-type). In words: microbe, parasite or virus in culture. As to conditions: Influenza A virus, AX4.
The test system of assay [5] is A/Yokohama/40/2016 (wild-type). Kind of assay: microbe, parasite or virus in culture. As to conditions: Influenza A virus, AX4.
The subject of assay [6] is A/Yokohama/59/2016 (wild-type). Kind of assay: microbe, parasite or virus in culture. As to conditions: Influenza A virus, AX4.
The target in assay [7] is neuraminidase of A/Sakai/23/2013 (wild-type) (Influenza A virus, UniProt W8DXJ8).
In assay [8] the target is neuraminidase of A/Yokohama/40/2016 (wild-type) (Influenza A virus, UniProt A0A0X9QTS2).
Assay [9] has as its target neuraminidase of A/Yokohama/59/2016 (wild-type) (Influenza A virus, UniProt A0A0X9QTS2).

For `O=C1c2c(O)c(=O)ccn2N([C@@H]2c3ccccc3SCc3c2ccc(F)c3F)[C@@H]2COCCN12` [Baloxavir, Baloxavir acid], the values for the IC50 in [1], in assay [2] and in [3] were 4.05 nM, 6.16 nM and 11 nM, respectively.
In the case of `NC(=O)c1nc(F)c[nH]c1=O` [Favipiravir, favipiravir], the EC50 in assay [4] was 6640 nM; in assay [5] it was 10000 nM; in assay [6], 8810 nM.
`CCC(CC)[C@H](NC(C)=O)[C@@H]1[C@H](O)[C@@H](C(=O)O)C[C@H]1N=C(N)N.O.O.O` [Peramivir, peramivir trihydrate]: the IC50 in [7] is 0.01 nM; in [8] it was 0.07 nM; in assay [9] it was 0.08 nM.

In general, IC50 refers to the concentration that inhibits the measured activity by half. A lower IC50 goes with greater potency in that assay. For orientation: EC50 means the concentration needed to bring the measured effect to its halfway point. Higher therefore signals lower potency in that assay.

Values taken from PMC7559125 (Pathogens, 2020).
